Target: T1, LXRβ (Homo sapiens, UniProt P55055)
T1 construct: Co-transfection expression plasmids, comprising full-length LXRα (pCMX-h LXRα or LXRβ (pCMX-hLXRβ)); expressed in transfected cells; host or cells: CV-1 African green monkey kidney cells, transient transfection with pCMX-hLXRβ
T1 sequence (P55055 1-460): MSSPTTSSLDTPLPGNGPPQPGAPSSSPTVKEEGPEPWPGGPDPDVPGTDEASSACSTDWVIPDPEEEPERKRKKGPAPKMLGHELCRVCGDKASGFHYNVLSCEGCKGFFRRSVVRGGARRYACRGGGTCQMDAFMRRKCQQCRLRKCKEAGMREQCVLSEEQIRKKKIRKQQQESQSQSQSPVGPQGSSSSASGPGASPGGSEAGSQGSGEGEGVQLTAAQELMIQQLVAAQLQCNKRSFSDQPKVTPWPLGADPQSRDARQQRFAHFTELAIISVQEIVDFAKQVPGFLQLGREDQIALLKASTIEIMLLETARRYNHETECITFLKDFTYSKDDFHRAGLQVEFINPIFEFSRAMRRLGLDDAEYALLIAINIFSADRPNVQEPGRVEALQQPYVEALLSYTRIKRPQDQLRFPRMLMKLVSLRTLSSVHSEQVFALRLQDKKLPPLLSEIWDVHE
T1 sequence (P19793 1-462 partner): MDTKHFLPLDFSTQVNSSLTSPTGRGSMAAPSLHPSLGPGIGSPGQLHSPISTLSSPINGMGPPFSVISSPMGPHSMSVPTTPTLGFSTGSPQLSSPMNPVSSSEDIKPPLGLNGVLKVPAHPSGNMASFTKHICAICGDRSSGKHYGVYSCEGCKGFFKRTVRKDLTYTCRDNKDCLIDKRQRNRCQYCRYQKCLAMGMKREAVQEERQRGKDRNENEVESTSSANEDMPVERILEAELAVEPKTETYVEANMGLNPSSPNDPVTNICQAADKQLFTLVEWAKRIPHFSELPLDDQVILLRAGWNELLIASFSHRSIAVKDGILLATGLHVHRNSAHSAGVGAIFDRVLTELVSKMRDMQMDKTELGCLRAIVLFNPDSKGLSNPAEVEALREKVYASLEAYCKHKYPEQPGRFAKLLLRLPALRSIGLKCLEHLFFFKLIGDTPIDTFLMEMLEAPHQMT
Assay: LXR/LXRE co-transfection assay (luciferase reporter) in CV-1 cells, LXRβ
Type: cell-based
Conditions: for EC50: CV-1 cells transfected with pCMX-hLXRβ and LXREx1-Tk-Luciferase, 20 hours incubation, read-out: LXRbeta agonism EC50; for Emax: CV-1 cells, relative to maximum response of high control N-(3-((4-fluorophenyl)-(naphthalene-2-sulfonyl)amino)propyl)-2,2-dimethylpropionamide, read-out: LXRbeta % EFFICACY
Summary of the method: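 CV-1 cells transiently co-transfected with full-length human LXRβ, LXRE-Tk-luciferase reporter and β-galactosidase control, then exposed to compound (≤0.5% DMSO) for 20 h at 37 °C before luminescence read. EC50 from 10-point, half-log dose curves; efficacy relative to the sulfonamide high control, means of 2–3 experiments.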

| SMILES | EC50 | Emax |
| --- | --- | --- |
| Cc1nc(-c2ccc(OC(F)(F)F)cc2)c(-c2cc(-c3cccc(C4(C(N)=O)CC4)c3)ccc2-n2nc(C(F)(F)F)cc2Cl)o1 [Example 381, 1-(4′-(5-chloro-3-(trifluoromethyl)-1H-pyrazol-1-yl)-3′-(2-methyl-4-(4-(trifluoromethoxy)phenyl)oxazol-5-yl)-[1,1′-biphenyl]-3-yl) cyclopropanecarboxamide] | 1080 nM | 61% |
| CCOc1cc(C(F)(F)F)nn1-c1ccc(-c2cc(F)c(CO)c(S(C)(=O)=O)c2)cc1-c1nc(C)oc1-c1ccc(OC(F)(F)F)cc1 [Example 382, (4′-(5-ethoxy-3-(trifluoromethyl)-1H-pyrazol-1-yl)-3-fluoro-3′-(2-methyl-5-(4-(trifluoromethoxy)phenyl)oxazol-4-yl)-5-(methylsulfonyl)biphenyl-4-yl)methanol] | 629 nM | 50% |
| Cc1nc(-c2cc(-c3cccc(S(C)(=O)=O)c3)ccc2-n2nc(C(F)(F)F)cc2C)c(-c2ccc(OC(F)F)cc2)o1 [Example 383, 5-(4-(difluoromethoxy)phenyl)-2-methyl-4-(4-(5-methyl-3-(trifluoromethyl)-1H-pyrazol-1-yl)-3′-(methylsulfonyl)biphenyl-3-yl)oxazole] | 18 nM | 76% |
| Cc1nc(-c2cc(-c3cc(F)c(CO)c(S(C)(=O)=O)c3)ccc2-n2nc(C(F)(F)F)cc2C)c(-c2ccc(OC(F)F)cc2)o1 [Example 384, (3′-(5-(4-(difluoromethoxy)phenyl)-2-methyloxazol-4-yl)-3-fluoro-4′-(5-methyl-3-(trifluoromethyl)-1H-pyrazol-1-yl)-5-(methylsulfonyl)biphenyl-4-yl)methanol] | 15 nM | 73% |
| Cc1nc(-c2cc(-c3cccc(S(C)(=O)=O)c3)ccc2-n2nc(C(F)(F)F)cc2C)c(-c2ccc(OC(F)(F)F)cc2)o1 [Example 385, 2-methyl-4-(4-(5-methyl-3-(trifluoromethyl)-1H-pyrazol-1-yl)-3′-(methylsulfonyl)biphenyl-3-yl)-5-(4-(trifluoromethoxy)phenyl) oxazole] | 42 nM | 71% |
| Cc1nc(-c2cc(-c3cc(F)c(CO)c(S(C)(=O)=O)c3)ccc2-n2nc(C(F)(F)F)cc2C)c(-c2ccc(OC(F)(F)F)cc2)o1 [Example 386, (3-fluoro-4′-(5-methyl-3-(trifluoromethyl)-1H-pyrazol-1-yl)-3′-(2-methyl-5-(4-(trifluoromethoxy)phenyl)oxazol-4-yl)-5-(methylsulfonyl)biphenyl-4-yl)methanol] | 34 nM | 86% |
| Cc1nc(-c2cc(-c3ccc(CO)c(S(C)(=O)=O)c3)ccc2-n2nc(C(F)(F)F)cc2C)c(-c2ccc(OC(F)(F)F)cc2)o1 [Example 387, (4′-(5-methyl-3-(trifluoromethyl)-1H-pyrazol-1-yl)-3′-(2-methyl-5-(4-(trifluoromethoxy)phenyl)oxazol-4-yl)-3-(methylsulfonyl)biphenyl-4-yl)methanol] | 82 nM | 79% |
| Cc1nc(-c2cc(-c3cccc(S(C)(=O)=O)c3)ccc2-n2nc(C(F)(F)F)cc2C)c(-c2ccc3c(c2)OC(F)(F)O3)o1 [Example 388, 5-(2,2-difluorobenzo[d][1,3]dioxol-5-yl)-2-methyl-4-(4-(5-methyl-3-(trifluoromethyl)-1H-pyrazol-1-yl)-3′-(methylsulfonyl)biphenyl-3-yl)oxazole] | 9 nM | 78% |
| Cc1nc(-c2cc(-c3cc(F)c(CO)c(S(C)(=O)=O)c3)ccc2-n2nc(C(F)(F)F)cc2C)c(-c2ccc3c(c2)OC(F)(F)O3)o1 [Example 389, (3′-(5-(2,2-difluorobenzo[d][1,3]dioxol-5-yl)-2-methyloxazol-4-yl)-3-fluoro-4′-(5-methyl-3-(trifluoromethyl)-1H-pyrazol-1-yl)-5-(methylsulfonyl)biphenyl-4-yl)methanol] | 7 nM | 84% |
| Cc1nc(-c2cc(-c3ccc(CO)c(S(C)(=O)=O)c3)ccc2-n2nc(C(F)(F)F)cc2C)c(-c2ccc3c(c2)OC(F)(F)O3)o1 [Example 390, (3′-(5-(2,2-difluorobenzo[d][1,3]dioxol-5-yl)-2-methyloxazol-4-yl)-4′-(5-methyl-3-(trifluoromethyl)-1H-pyrazol-1-yl)-3-(methylsulfonyl)biphenyl-4-yl) methanol] | 10 nM | 72% |
| Cc1cc(C(F)(F)F)n(-c2ccc(-c3cc(F)c(CO)c(S(C)(=O)=O)c3)cc2-c2nc(C)oc2-c2ccc(OC(F)F)cc2)n1 [Example 391, (3′-(5-(4-(difluoromethoxy)phenyl)-2-methyloxazol-4-yl)-3-fluoro-4′-(3-methyl-5-(trifluoromethyl)-1H-pyrazol-1-yl)-5-(methylsulfonyl)biphenyl-4-yl)methanol] | 165 nM | 56% |
| Cc1nc(-c2cc(-c3ccc(CO)c(S(C)(=O)=O)c3)ccc2-n2nc(C(F)(F)F)cc2C)c(-c2ccc(OC(F)F)cc2)o1 [Example 392, (3′-(5-(4-(difluoromethoxy)phenyl)-2-methyloxazol-4-yl)-4′-(5-methyl-3-(trifluoromethyl)-1H-pyrazol-1-yl)-3-(methylsulfonyl)biphenyl-4-yl)methanol] | 12 nM | 71% |
| Cc1cc(C(F)(F)F)n(-c2ccc(-c3cccc(S(C)(=O)=O)c3)cc2-c2nc(C)oc2-c2ccc(OC(F)F)cc2)n1 [Example 393, 5-(4-(difluoromethoxy)phenyl)-2-methyl-4-(4-(3-methyl-5-(trifluoromethyl)-1H-pyrazol-1-yl)-3′-(methylsulfonyl)biphenyl-3-yl)oxazole] | 744 nM | 40% |
| Cc1nc(-c2cc(-c3cccc(S(C)(=O)=O)c3)ccc2-n2ccc(C(F)(F)F)n2)c(-c2ccc(OC(F)F)nc2)o1 [Example 394, 5-(6-(difluoromethoxy)pyridin-3-yl)-2-methyl-4-(3′-(methylsulfonyl)-4-(3-(trifluoromethyl)-1H-pyrazol-1-yl)biphenyl-3-yl)oxazole] | 16 nM | 97% |
| Cc1nc(-c2cc(-c3cc(F)c(CO)c(S(C)(=O)=O)c3)ccc2-n2ccc(C(F)(F)F)n2)c(-c2ccc(OC(F)F)nc2)o1 [Example 395, (3′-(5-(6-(difluoromethoxy)pyridin-3-yl)-2-methyloxazol-4-yl)-3-fluoro-5-(methylsulfonyl)-4′-(3-(trifluoromethyl)-1H-pyrazol-1-yl)biphenyl-4-yl)methanol] | 11 nM | 83% |
| Cc1nc(-c2cc(-c3cc(F)c(CO)c(S(C)(=O)=O)c3)ccc2-n2ccc(C(F)(F)F)n2)c(-c2ccc(Cl)c(OC(F)F)c2)o1 [Example 396, (3′-(5-(4-chloro-3-(difluoromethoxy)phenyl)-2-methyloxazol-4-yl)-3-fluoro-5-(methylsulfonyl)-4′-(3-(trifluoromethyl)-1H-pyrazol-1-yl)biphenyl-4-yl)methanol] | 90 nM | 67% |
| Cc1nc(-c2cc(-c3cccc(S(C)(=O)=O)c3)ccc2-n2ccc(C(F)(F)F)n2)c(-c2ccc(OC(F)F)c(Cl)c2)o1 [Example 397, 5-(3-chloro-4-(difluoromethoxy)phenyl)-2-methyl-4-(3′-(methylsulfonyl)-4-(3-(trifluoromethyl)-1H-pyrazol-1-yl)biphenyl-3-yl)oxazole] | 194 nM | 68% |
| CC(C)c1nc(-c2cc(-c3cc(F)c(CO)c(S(C)(=O)=O)c3)ccc2-n2ccc(C(F)(F)F)n2)c(-c2ccc(OC(F)(F)F)cc2)o1 [Example 398, (3-fluoro-3′-(2-isopropyl-5-(4-(trifluoromethoxy)phenyl)oxazol-4-yl)-5-(methylsulfonyl)-4′-(3-(trifluoromethyl)-1H-pyrazol-1-yl)biphenyl-4-yl)methanol] | 38 nM | 63% |
| CC(C)c1nc(-c2cc(-c3cccc(S(C)(=O)=O)c3)ccc2-n2ccc(C(F)(F)F)n2)c(-c2ccc(OC(F)(F)F)cc2)o1 [Example 399, 2-isopropyl-4-(3′-(methylsulfonyl)-4-(3-(trifluoromethyl)-1H-pyrazol-1-yl)biphenyl-3-yl)-5-(4-(trifluoromethoxy)phenyl)oxazole] | 200 nM | 60% |

— patent US9751869B2, “LXR modulators” (BRISTOL-MYERS SQUIBB COMPANY, priority 2013, dated 2017)
